From patent publication US9409892B2, “4-hydroxy-isoquinoline compounds as HIF hydroxylase inhibitors” (FIBROGEN, INC., priority 2012, dated 2016)

How the values were obtained:
PHD2 (EGLN1) = PHD2 (EGLN1) (Homo sapiens (Human), UniProt Q9GZT9); assay: HIF-PH assay (14CO2 capture), PHD2 enzyme inhibition; format: biochemical; conditions: Table 1; individual measurement; read-out: IC50 (μM) PHD2
Text: (§1) Ketoglutaric acid α-[1-^14C]-sodium salt, alpha-ketoglutaric acid sodium salt, and HPLC purified peptide may be obtained from commercial sources, e.g., Perkin-Elmer (Wellesley Mass.), Sigma-Aldrich, and SynPep Corp. (Dublin Calif.), respectively. Peptides for use in the assay may be fragments of HIFα as described above or as disclosed in International Publication WO 2005/118836, incorporated by reference herein. HIF-pH, e.g., PHD1 (EGLN2) or PHD2 (EGLN1), can be expressed in, e.g., insect Hi5 cells, and partially purified, e.g., through a SP ion exchange chromatography column. Enzyme activity is determined by capturing ^14CO2 using an assay described by Kivirikko and Myllyla (1982, Methods Enzymol. 82:245-304). Assay reactions contain 50 mM HEPES (pH 7.4), 100 μM α-ketoglutaric acid sodium salt, 0.30 mCi/mL ketoglutaric acid α-[1-^14C]-sodium salt, 40 μM FeSO4, 1 mM ascorbate, 1541.8 units/mL Catalase, with or without 50 μM peptide substrate and various concentrations of compound of the invention. Reactions are initiated by addition of HIF-PH enzyme.
(§2) The peptide-dependent percent turnover is calculated by subtracting percent turnover in the absence of peptide from percent turnover in the presence of substrate peptide. Percent inhibition and IC50 are calculated using peptide-dependent percent turnover at given inhibitor concentrations. Calculation of IC50 values for each inhibitor is conducted using GraFit software (Erithacus Software Ltd., Surrey UK).
(§3) The PHD2/PHD1 is the ratio of the IC50 of the compound for each enzyme.

PHD1 (EGLN2) = PHD1 (EGLN2) (Homo sapiens (Human), UniProt Q96KS0); assay: HIF-PH assay (14CO2 capture), PHD1 enzyme inhibition; format: biochemical; conditions: Table 1; for IC50: individual measurement, read-out: IC50 (μM) PHD1; for PHD2/PHD1: ratio of the IC50 of the compound for each enzyme
Text: as §1, §2, §3

PHD1 (EGLN2), sequence (Q96KS0 whole entry): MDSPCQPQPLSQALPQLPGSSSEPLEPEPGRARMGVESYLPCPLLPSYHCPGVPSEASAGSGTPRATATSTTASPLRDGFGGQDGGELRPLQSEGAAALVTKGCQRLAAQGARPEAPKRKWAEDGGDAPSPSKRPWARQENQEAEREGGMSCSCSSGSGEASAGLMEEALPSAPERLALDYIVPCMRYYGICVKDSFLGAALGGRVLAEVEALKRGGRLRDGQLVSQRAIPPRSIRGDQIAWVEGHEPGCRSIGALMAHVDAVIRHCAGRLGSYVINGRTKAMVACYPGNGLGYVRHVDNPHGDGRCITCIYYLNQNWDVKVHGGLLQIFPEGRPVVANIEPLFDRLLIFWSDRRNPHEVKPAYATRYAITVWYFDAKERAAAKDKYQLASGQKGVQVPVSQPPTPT
PHD2 (EGLN1), sequence (Q9GZT9 whole entry, the tested form may be a part): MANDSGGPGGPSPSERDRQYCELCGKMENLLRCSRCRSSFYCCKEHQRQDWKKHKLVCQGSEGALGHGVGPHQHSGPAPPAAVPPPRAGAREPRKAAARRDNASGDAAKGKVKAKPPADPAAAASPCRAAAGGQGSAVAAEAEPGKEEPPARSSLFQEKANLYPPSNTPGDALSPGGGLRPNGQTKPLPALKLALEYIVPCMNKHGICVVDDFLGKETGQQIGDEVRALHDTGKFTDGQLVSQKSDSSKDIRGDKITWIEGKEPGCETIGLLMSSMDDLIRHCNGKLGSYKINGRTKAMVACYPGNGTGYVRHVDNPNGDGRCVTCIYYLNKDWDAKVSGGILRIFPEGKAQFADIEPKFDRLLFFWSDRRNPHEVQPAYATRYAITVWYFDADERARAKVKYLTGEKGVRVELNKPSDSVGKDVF

Structure (SMILES) | IC50 (PHD2 (EGLN1)) [µM] | IC50 (PHD1 (EGLN2)) [µM] | PHD2/PHD1 (PHD1 (EGLN2))
CC(C)(CCC(=O)O)NC(=O)c1nc(C#N)c2cc(Oc3ccccc3)ccc2c1O [Compound 46, 4-(1-Cyano-4-hydroxy-7-phenoxyisoquinoline-3-carboxamido)-4-methylpentanoic acid] | 20.8 | 0.94 | 22
N#Cc1nc(C(=O)NC[C@H](Cc2ccccc2)C(=O)O)c(O)c2ccc(Oc3ccccc3)cc12 [Compound 49, (S)-2-Benzyl-3-[(1-cyano-4-hydroxy-7-phenoxy-isoquinoline-3-carbonyl)-amino]-propionic acid] | 23.9 | 1.66 | 14
CC(=O)N[C@H](CCNC(=O)c1nc(C#N)c2cc(Oc3ccccc3)ccc2c1O)C(=O)O [Compound 51, (R)-2-Acetylamino-4-[(1-cyano-4-hydroxy-7-phenoxy-isoquinoline-3-carbonyl)-amino]-butyric acid] | 2.1 | 0.28 | 7.5
CCNC(=O)N[C@H](CCNC(=O)c1nc(C#N)c2cc(Oc3ccccc3)ccc2c1O)C(=O)O [Compound 52, (R)-4-(1-Cyano-4-hydroxy-7-phenoxyisoquinoline-3-carboxamido)-2-(3-ethylureido)butanoic acid] | 24.7 | 1.33 | 18.6
COC(=O)N[C@H](CCNC(=O)c1nc(C#N)c2cc(Oc3ccccc3)ccc2c1O)C(=O)O [Compound 53, (R)-4-(1-Cyano-4-hydroxy-7-phenoxyisoquinoline-3-carboxamido)-2-(methoxycarbonylamino)butanoic acid] | 1.4 | 0.24 | 5.8
N#Cc1nc(C(=O)NCC[C@@H](NC(N)=O)C(=O)O)c(O)c2ccc(Oc3ccccc3)cc12 [Compound 55, (R)-4-(1-Cyano-4-hydroxy-7-phenoxyisoquinoline-3-carboxamido)-2-ureidobutanoic acid] | 9.1 | 1.1 | 8

Second part, the molecule after the results:

IC50 (PHD2 (EGLN1)) [µM] | IC50 (PHD1 (EGLN2)) [µM] | PHD2/PHD1 (PHD1 (EGLN2)) | Structure (SMILES)
36.7 | 1.41 | 26 | N#Cc1nc(C(=O)NCC[C@H](N)C(=O)O)c(O)c2ccc(Oc3ccccc3)cc12 [Compound 45, (S)-2-Amino-4-(1-cyano-4-hydroxy-7-phenoxyisoquinoline-3-carboxamido)butanoic acid]
30.2 | 1.28 | 24 | N#Cc1nc(C(=O)N[C@@H](CC(=O)O)c2ccccc2)c(O)c2ccc(Oc3ccccc3)cc12 [Compound 47, (S)-3-[(1-Cyano-4-hydroxy-7-phenoxy-isoquinoline-3-carbonyl)-amino]-3-phenyl-propionic acid]
50.1 | 5.42 | 9 | N#Cc1nc(C(=O)N[C@H](CC(=O)O)c2ccccc2)c(O)c2ccc(Oc3ccccc3)cc12 [Compound 48, (R)-3-[(1-Cyano-4-hydroxy-7-phenoxy-isoquinoline-3-carbonyl)-amino]-3-phenyl-propionic acid]
45.4 | 5.19 | 9 | N#Cc1nc(C(=O)NCC[C@@H](N)C(=O)O)c(O)c2ccc(Oc3ccccc3)cc12 [Compound 50, (R)-2-Amino-4-(1-cyano-4-hydroxy-7-phenoxyisoquinoline-3-carboxamido)butanoic acid]
11 | 1.81 | 6.1 | CN(C)C(=O)N[C@H](CCNC(=O)c1nc(C#N)c2cc(Oc3ccccc3)ccc2c1O)C(=O)O [Compound 54, (R)-4-(1-Cyano-4-hydroxy-7-phenoxyisoquinoline-3-carboxamido)-2-(3,3-dimethylureido)butanoic acid]
1.8 | 0.26 | 7 | N#Cc1nc(C(=O)NCCC(=O)C(=O)O)c(O)c2ccc(Oc3ccccc3)cc12 [Compound 56, 4-(1-Cyano-4-hydroxy-7-phenoxyisoquinoline-3-carboxamido)-2-oxobutanoic acid]
